In ChEMBL document CHEMBL1137296, “Subtle side-chain modifications of the hop phytoestrogen 8-prenylnaringenin result in distinct agonist/antagonist activity profiles for estrogen receptors alpha and beta” (J Med Chem, 2006) one finds IC50 and Antagonist activity data, which are given here for eleven compounds.

Assay [1] concerns the target Estrogen receptor beta (Homo sapiens, UniProt Q92731).
Description: Displacement of [3H]E2 from human recombinant ERbeta LBD by SPA
Assay [2] has as its target T1, Estrogen receptor (Homo sapiens, UniProt P03372).
T1 sequence (P03372 whole entry): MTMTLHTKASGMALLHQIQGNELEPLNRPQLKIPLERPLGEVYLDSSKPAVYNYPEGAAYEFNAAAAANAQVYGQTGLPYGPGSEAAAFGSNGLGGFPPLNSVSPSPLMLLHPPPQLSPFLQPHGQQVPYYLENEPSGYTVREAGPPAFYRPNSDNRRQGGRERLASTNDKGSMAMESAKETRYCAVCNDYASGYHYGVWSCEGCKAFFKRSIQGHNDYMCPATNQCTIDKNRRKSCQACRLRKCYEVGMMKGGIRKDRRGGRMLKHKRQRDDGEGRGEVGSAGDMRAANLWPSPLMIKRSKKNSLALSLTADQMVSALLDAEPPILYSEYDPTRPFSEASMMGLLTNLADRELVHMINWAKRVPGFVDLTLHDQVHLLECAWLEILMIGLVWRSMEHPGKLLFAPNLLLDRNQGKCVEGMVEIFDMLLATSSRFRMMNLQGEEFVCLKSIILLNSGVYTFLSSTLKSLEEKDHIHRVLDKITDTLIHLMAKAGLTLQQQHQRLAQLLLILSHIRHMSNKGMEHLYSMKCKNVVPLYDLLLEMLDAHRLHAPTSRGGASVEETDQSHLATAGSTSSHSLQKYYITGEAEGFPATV
Description: Displacement of [3H]E2 from human recombinant ERalpha LBD by SPA

The target in assay [3] is T2, Estrogen receptor (Homo sapiens) (UniProt P03372).
T2 sequence (whole entry): T1 sequence (P03372 whole entry)
As to conditions: Huh-7, filed as antagonist.
Description: Antagonist activity on ERalpha-mediated transcription of ERE-luciferase reporter gene in human Huh7 cells relative to estradiol

Sequence of Estrogen receptor beta (Q92731 whole entry): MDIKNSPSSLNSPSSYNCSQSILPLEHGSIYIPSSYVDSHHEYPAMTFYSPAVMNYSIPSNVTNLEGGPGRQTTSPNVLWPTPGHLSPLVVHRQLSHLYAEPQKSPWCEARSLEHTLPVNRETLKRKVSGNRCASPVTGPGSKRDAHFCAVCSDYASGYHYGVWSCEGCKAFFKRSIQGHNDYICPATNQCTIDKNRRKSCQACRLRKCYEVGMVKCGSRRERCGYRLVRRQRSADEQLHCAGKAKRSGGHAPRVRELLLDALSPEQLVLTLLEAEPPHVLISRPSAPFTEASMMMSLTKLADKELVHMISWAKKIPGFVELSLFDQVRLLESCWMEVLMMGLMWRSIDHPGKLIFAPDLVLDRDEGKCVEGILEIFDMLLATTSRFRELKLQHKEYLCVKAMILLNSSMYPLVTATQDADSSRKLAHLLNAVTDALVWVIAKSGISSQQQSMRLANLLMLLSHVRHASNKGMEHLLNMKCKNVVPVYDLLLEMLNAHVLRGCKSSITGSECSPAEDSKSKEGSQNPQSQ

By IC50 is commonly meant the concentration needed to halve the response being measured. A higher IC50 goes with weaker potency. Take `O=C1C[C@@H](c2ccc(O)cc2)Oc2cc(O)cc(O)c21` [NARINGENIN]: the IC50 was 13500 nM in assay [1] and 75300 nM in assay [2].
`CCCCCCCCCCCc1c(O)cc(O)c2c1O[C@H](c1ccc(O)cc1)CC2=O`: the IC50 in assay [1] came to 421 nM; in assay [2] it was 1020 nM. For the same compound, the Antagonist activity entry in assay [3] is listed as “Partial antagonist”.
On to `Cc1c(O)cc(O)c2c1O[C@H](c1ccc(O)cc1)CC2=O`, for which the IC50 in assay [1] is 863 nM; in assay [2] it was 5250 nM.
The like results for `O=C1C[C@@H](c2ccc(O)cc2)Oc2c(Cc3ccccc3)c(O)cc(O)c21` were, in that order, 244 nM and 503 nM.
For `CC(C)CCc1c(O)cc(O)c2c1O[C@H](c1ccc(O)cc1)CC2=O`, in that order: 59 nM and 140 nM.
`CC(C)(C)Cc1c(O)cc(O)c2c1O[C@H](c1ccc(O)cc1)CC2=O`: the IC50 in assay [1] was 141 nM; in assay [2], 216 nM.
For the compound `CCCCCCCCCc1c(O)cc(O)c2c1O[C@H](c1ccc(O)cc1)CC2=O`, the half-maximal inhibitory concentration (IC50) in assay [1] came to 113 nM; in assay [2] it was 436 nM. Besides, the Antagonist activity entry in assay [3] is “Partial antagonist”.
The like results for `CCCCCCCc1c(O)cc(O)c2c1O[C@H](c1ccc(O)cc1)CC2=O` were, in that order, 69 nM, 392 nM and “Partial antagonist”.
`CCCCCc1c(O)cc(O)c2c1O[C@H](c1ccc(O)cc1)CC2=O`: the IC50 in assay [1] is 97 nM; in assay [2], 383 nM.
For `CCCc1c(O)cc(O)c2c1O[C@H](c1ccc(O)cc1)CC2=O`, in that order: 29 nM and 155 nM.
For `CC(C)Cc1c(O)cc(O)c2c1O[C@H](c1ccc(O)cc1)CC2=O`, in that order: 37 nM and 80 nM.
